Data from patent US20130129720A1, “Combination Cancer Therapies with Wortmannin Analogs” (ONCOTHYREON INC., priority 2010, published 2013).

Assays:
p110α = p110α (Homo sapiens, UniProt P42336); experiment: cell based assays, p110α; conditions: for IC50: in cell based assays
From the text: (§1) PX-866 is an pan-isoform inhibitor of Class I P1-3K that covalently binds to ATP binding site of the p110 catalytic subunit. Described herein are studies that illustrate rapid metabolism of PX-866 to a 17-hydroxy PX-866 derivative.

p110β = p110β (Homo sapiens, UniProt P42338); experiment: cell based assays, p110β; conditions: in cell based assays
Sequence of p110β (P42338 whole entry): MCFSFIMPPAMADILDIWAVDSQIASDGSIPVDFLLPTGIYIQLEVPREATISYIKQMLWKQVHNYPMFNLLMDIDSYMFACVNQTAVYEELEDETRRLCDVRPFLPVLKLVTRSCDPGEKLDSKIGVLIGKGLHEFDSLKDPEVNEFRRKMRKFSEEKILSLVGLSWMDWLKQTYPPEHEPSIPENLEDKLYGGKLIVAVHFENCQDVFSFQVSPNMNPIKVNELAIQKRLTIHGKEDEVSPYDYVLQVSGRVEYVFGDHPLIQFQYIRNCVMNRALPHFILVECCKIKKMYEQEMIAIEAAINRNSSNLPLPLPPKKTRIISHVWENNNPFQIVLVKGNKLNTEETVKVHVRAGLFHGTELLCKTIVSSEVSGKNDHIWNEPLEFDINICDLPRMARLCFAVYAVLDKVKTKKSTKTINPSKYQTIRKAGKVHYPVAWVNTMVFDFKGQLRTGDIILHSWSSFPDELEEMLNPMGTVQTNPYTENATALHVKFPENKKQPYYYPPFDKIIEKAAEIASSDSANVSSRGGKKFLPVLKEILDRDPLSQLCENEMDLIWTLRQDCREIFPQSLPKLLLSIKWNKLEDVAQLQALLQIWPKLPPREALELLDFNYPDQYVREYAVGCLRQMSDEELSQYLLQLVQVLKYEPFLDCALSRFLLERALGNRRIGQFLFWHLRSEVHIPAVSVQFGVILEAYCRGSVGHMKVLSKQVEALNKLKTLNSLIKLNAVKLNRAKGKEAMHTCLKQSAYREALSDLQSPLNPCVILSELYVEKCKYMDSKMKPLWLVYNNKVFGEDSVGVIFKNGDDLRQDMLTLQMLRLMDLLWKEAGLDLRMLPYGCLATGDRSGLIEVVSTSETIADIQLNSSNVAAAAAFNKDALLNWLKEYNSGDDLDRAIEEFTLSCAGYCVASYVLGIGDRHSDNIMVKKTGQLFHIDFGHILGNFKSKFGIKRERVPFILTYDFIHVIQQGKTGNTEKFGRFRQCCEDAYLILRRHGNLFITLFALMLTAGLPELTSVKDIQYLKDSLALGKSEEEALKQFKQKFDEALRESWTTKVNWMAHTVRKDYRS
Sequence of p110β (P27986 whole entry partner): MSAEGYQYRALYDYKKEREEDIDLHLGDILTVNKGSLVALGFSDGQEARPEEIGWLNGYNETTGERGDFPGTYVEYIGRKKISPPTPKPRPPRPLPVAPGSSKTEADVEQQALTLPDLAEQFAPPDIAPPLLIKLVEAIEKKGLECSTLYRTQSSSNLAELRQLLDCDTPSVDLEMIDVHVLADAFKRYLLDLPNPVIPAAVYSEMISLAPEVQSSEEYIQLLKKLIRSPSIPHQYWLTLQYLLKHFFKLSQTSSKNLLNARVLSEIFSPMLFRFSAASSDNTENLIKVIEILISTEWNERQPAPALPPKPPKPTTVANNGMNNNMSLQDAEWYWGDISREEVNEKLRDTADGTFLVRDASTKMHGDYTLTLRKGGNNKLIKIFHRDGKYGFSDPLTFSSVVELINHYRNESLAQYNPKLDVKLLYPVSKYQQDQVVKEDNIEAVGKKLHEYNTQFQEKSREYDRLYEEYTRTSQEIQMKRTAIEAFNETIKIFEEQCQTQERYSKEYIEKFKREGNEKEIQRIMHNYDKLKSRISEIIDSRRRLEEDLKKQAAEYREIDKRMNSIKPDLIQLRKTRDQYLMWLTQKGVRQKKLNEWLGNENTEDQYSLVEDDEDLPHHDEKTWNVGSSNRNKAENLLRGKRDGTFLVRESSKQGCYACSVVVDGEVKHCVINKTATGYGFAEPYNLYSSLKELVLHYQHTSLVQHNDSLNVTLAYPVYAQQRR
From the text: as §1

PIK3CD = PIK3CD (Homo sapiens, UniProt O00329); experiment: in vitro kinase assay, PIK3CD; assay type: biochemical
Sequence of PIK3CD (O00329 whole entry): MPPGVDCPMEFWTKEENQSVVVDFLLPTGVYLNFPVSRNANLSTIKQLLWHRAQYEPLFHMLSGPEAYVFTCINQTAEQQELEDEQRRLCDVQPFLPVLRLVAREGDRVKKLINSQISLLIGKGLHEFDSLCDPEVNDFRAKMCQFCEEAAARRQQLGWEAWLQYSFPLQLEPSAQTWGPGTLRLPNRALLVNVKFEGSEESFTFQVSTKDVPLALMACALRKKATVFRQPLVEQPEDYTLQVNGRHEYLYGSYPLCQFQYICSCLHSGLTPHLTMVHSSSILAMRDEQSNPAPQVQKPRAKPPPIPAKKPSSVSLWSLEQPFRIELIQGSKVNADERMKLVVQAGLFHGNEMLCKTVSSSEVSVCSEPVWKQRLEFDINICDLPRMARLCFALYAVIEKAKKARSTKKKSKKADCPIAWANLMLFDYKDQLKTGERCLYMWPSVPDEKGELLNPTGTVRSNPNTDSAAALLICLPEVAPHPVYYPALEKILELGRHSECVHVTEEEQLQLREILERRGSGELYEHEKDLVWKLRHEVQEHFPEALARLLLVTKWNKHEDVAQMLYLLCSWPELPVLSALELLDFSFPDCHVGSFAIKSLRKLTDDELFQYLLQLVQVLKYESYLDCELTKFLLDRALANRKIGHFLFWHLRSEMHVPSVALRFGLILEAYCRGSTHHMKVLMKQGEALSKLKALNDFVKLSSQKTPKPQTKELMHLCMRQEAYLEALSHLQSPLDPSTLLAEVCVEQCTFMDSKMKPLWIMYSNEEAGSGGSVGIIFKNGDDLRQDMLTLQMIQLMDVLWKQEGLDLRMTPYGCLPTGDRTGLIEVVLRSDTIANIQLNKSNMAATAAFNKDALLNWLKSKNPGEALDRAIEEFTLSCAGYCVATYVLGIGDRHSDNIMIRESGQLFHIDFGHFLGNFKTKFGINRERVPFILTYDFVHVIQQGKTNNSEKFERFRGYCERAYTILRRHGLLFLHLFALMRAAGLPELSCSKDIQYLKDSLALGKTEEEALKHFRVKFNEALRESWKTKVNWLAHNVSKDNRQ
Sequence of PIK3CD (P27986 whole entry partner): as the sequence (P27986 whole entry partner) above
From the text: (§2) Table 1 illustrates the potency of 17-hydroxy PX-866 metabolite in in vitro kinase assays: […]

[1] = Phase I trial: clinical pharmacokinetics
clinical = conditions: human, in vivo
PIK3CB = PIK3CB (Homo sapiens, UniProt P42338); experiment: in vitro kinase assay, PIK3CB; assay type: biochemical
Sequence of PIK3CB (P42338 whole entry): as the sequence (P42338 whole entry) above
Sequence of PIK3CB (P27986 whole entry partner): as the sequence (P27986 whole entry partner) above
From the text: as §2

PIK3CA = PIK3CA (Homo sapiens, UniProt P42336); experiment: in vitro kinase assay, PIK3CA; assay type: biochemical
Sequence of PIK3CA (P42336 whole entry): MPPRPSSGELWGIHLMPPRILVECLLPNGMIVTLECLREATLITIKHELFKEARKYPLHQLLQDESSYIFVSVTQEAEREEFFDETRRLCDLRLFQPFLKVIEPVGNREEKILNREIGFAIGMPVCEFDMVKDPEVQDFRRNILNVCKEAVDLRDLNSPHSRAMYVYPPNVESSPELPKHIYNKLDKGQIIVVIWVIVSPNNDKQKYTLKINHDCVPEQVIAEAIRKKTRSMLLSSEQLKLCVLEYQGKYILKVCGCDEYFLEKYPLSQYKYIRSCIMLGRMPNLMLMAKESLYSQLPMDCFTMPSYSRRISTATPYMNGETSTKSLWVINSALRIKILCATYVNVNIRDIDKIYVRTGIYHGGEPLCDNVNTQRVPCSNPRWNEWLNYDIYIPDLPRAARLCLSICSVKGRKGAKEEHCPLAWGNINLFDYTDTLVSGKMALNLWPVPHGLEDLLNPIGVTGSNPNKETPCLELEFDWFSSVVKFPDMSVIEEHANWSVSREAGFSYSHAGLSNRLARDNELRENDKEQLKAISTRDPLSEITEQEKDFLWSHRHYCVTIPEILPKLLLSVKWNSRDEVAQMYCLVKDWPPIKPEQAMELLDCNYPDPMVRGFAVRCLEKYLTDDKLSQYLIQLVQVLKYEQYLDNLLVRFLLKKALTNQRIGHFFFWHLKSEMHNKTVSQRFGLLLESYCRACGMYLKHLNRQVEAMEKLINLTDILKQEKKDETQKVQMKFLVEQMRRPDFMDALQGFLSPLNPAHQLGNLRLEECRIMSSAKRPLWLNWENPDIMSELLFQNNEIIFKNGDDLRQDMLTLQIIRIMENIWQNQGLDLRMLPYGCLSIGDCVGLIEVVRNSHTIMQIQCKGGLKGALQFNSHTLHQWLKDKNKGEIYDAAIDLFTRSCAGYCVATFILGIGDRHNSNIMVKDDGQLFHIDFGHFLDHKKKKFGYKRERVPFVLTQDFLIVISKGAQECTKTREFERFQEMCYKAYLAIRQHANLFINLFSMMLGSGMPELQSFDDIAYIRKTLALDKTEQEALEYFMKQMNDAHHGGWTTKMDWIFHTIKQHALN
Sequence of PIK3CA (P27986 whole entry partner): as the sequence (P27986 whole entry partner) above
From the text: as §2

PIK3CG = PIK3CG (Homo sapiens, UniProt P48736); experiment: in vitro kinase assay, PIK3CG; assay type: biochemical
From the text: as §2

[2] = test system: PI-3K pathway (p-mTOR and p-S6); experiment: Phase I trial: pharmacodynamics in PBMCs stimulated ex vivo, FACS based assay; parameters: species or system human; conditions: PBMCs of treated patients
Procedure: The pharmacodynamic effects of PX-866 in patients treated in the phase I single agent study were assessed using isolated peripheral blood mononuclear cells (PBMCs) stimulated ex vivo via FACS based assay. […] The study provided Evidence for pathway inhibition lasting up to 3 days post-treatment.

advanced solid tumors = experiment: Phase I trial of oral PX-866: response per RECIST; assay type: in vivo, human
Procedure: Patient response was evaluated according to Response Evaluation Criteria in Solid Tumors (RECIST). Briefly, all measurable lesions up to a maximum of five lesions, representative of all involved organs were identified as target lesions and recorded and measured at baseline. Target lesions were selected on the basis of their size (lesions with the longest diameter) and their suitability for accurate repeated measurements (either by imaging techniques or clinically). A sum of the longest diameter (LD) for all target lesions was calculated and reported as the baseline sum LD. The baseline sum LD was used as reference by which to characterize the objective tumor. All other lesions (or sites of disease) were identified as non-target lesions and were also be recorded at baseline. Measurements of these lesions were not required, but the presence or absence of each was noted throughout follow-up.
A Complete Response (CR) indicated a disappearance of all target lesions.

p-AKT/T-AKT = experiment: Phase I trial: p-AKT/T-AKT pharmacodynamics; assay type: in vivo, human; conditions: 3 of 4 patients at 8 mg, 4 hours after a single oral dose
[3] = test system: A549 lung tumor xenografts; conditions: 2 mg/kg PX-866 daily treatment groups
Procedure: H460 and A549 lung tumor xenografts were implanted subcutaneously in nude mice according to previously described procedures. PX-866 was tested on both a daily (2 mg/kg) and every-other-day dosing (3 mg/kg) schedule alone, and in combination with a 10 mg/kg dose of docetaxel. The dosing schedule of PX-866 relative to docetaxel was varied to test the effect of docetaxel treatment prior to or subsequent to PX-866 treatment. A table of the following dosing regimens is as follows with animals in Group 1 receiving a daily vehicle: […]

[4] = Phase I trial of oral PX-866: safety, DLT and MTD; assay type: in vivo, human
Procedure: This was an Open-label dose escalation study with expansion cohort at Maximal Tolerated Dose (MTD), 3+3 design and to test efficacy of 2 dosing schedules (intermittent and continuous). PX-866 was administered as an oral dose.
The primary and secondary objectives were tested using two different dosing regimens: 10 days of drug administration and daily administration for 28 days.
Intermittent schedule: 10 dose levels tested (0.5-16 mg). The starting dose level was 0.5 mg. Doses increased as follows: 100% escalation up to 2 mg, 50% escalation up to 4.5 mg, and approximately 30% escalation until the MTD is identified. The highest dose level at which no more than ⅙ patients experiences DLT was declared the MTD. The resulting dose levels were: 0.5, 1, 2, 3, 4.5, 6, 8, 10, 12 and 16 mg.
FIG. 1 illustrates the dosing schedule for intermittent dosing where PX-866 was given to patients on days 1-5 and 8-12 of a 28-day cycle.
Continuous dosing schedule: The starting dose was two dose levels below the MTD of intermittent dosing (8 mg) and subsequent dose levels was one or two dose levels (10 mg or 8 mg) below the MTD of intermittent dosing dependent on recommendation of the dose cohort review committee. FIG. 1 illustrates the dosing schedule for continuous dosing.

[5] = aqueous solutions at 37° C. or 0° C. at neutral pH; cited from earlier work
[6] = in vivo; cited from earlier work
CUHN015 tumors = experiment: direct patient tumor model of SCCHN, CUHN015; assay type: in vivo, nude mice; conditions: PX-866 2 mg/kg 5 out of 7 days; docetaxel 20 mg/kg IP weekly
Procedure: Briefly, these models employed direct implantation of patients' tumors into nude mice according to Keysar et al., J Clin Oncol 28:15s, 2010 (suppl. abstruct 5558).
Animals were treated with PX-866 alone, and in combination with 20 mg/kg docetaxel dosed intraperitoneally (IP) on a weekly schedule. Saline treated animals and 20 mg/kg docetaxel dosed animals served as controls for the study.

Sequence of p110α (P42336 whole entry, canonical isoform): as the sequence (P42336 whole entry) above
Sequence of p110α (P27986 whole entry partner, canonical isoform): as the sequence (P27986 whole entry partner) above

C=CCN(C=C1C(=O)OC(COC)C2(C)C1=C(O)C(=O)C1=C2C(OC(C)=O)CC2(C)C(O)CCC12)CC=C (centres unmarked) [17-OH PX-866]
increase in potency (p110α; cell proliferation assays versus p110α and p110β isoforms, relative to PX-866): 2-5 fold
IC50 (p110α): 14 nM
IC50 (p110β): 57 nM
IC50 (PIK3CD): 131 nM
drug accumulation ([1]; 12 mg cohort, intermittent dosing): no evidence of drug accumulation
AUC in humans compared with mice ([1]; due to increased mean residence time in humans): exceeded AUC in mice
Cmax in humans compared with mice ([1]; mice treated at an efficacious dose of PX-866 (2 mg/kg)): equal to or exceed peak levels observed in mice
AUC(0-t) (clinical; 8 mg): 4.22 ng·h/mL
Cmax (clinical; 8 mg): 1.14 ng/mL
half-life (clinical; 8 mg): 3.62 h
Tmax (clinical; po): 0.67 to 1.07 h
IC50 (PIK3CB): 57 nM
IC50 (PIK3CA): 14 nM
IC50 (PIK3CG): 148 nM

C=CCN(/C=C1/C(=O)O[C@H](COC)[C@@]2(C)C1=C(O)C(=O)C1=C2[C@H](OC(C)=O)C[C@]2(C)C(=O)CC[C@@H]12)CC=C [PX-866, Acetic acid 4-diallylaminomethylene-6-hydroxy-1-α-methoxymethyl-10β,13β-dimethyl-3,7,17-trioxo-1,3,4,7,10,11β,12,13,14α,15,16,17-dodecahydro-2-oxa-cyclopenta[α]phenanthren-11-yl ester]
IC50 (p110α): 39 nM
duration of pathway inhibition post-treatment [2]: up to 3 days
IC50 (p110β): 88 nM
IC50 (PIK3CD): 124 nM
Disease stabilization, patients (advanced solid tumors; continuous dosing): 71%
Disease stabilization, patients (advanced solid tumors; intermittent dosing): 16%
decrease in p-AKT/T-AKT (p-AKT/T-AKT): ≥ 60%
conversion of parent to 17-OH metabolite ([1]; oral, patients): rapid conversion
plasma level of parent ([1]; oral, patients, with rare exceptions): below the limits of detection
mortality [3]: Increased mortality
IC50 (PIK3CB): 88 nM
IC50 (PIK3CA): 39 nM
ALT/AST elevation ([4]; continuous dosing): ALT/AST elevation was observed
Most common adverse events (AEs) ([4]; continuous dosing): diarrhea, nausea, vomiting, headache and fatigue
DLT, patients ([4]; continuous dosing, 10 mg per day): 2/3
Most common adverse events (AEs) ([4]; intermittent dosing): diarrhea, nausea, vomiting, and constipation
toxicity in patients receiving >2 cycles ([4]; intermittent dosing schedule): No significant increase in toxicity
Dose limiting toxicity (DLT), patients ([4]; intermittent dosing, 16 mg per day): 2/5
Maximal Tolerated Dose (MTD) for continuous dosing ([4]; oral, daily for 28 days): 8 mg per day
Maximal Tolerated Dose (MTD) for intermittent dosing ([4]; oral, days 1-5 and 8-12 of a 28-day cycle): 12 mg per day
IC50 (PIK3CG): 198 nM

COC[C@H]1OC(=O)c2coc3c2[C@@]1(C)C1=C(C3=O)[C@@H]2CCC(=O)[C@@]2(C)C[C@H]1OC(C)=O [Wortmannin]
stability [5]: subject to decomposition by hydrolytic opening of the furan ring
toxicity [6]: liver and hematologic toxicity

CC(=O)O[C@@]12CO[C@@H]1C[C@H](O)[C@@]1(C)C(=O)[C@H](O)C3=C(C)[C@@H](OC(=O)[C@H](O)[C@@H](NC(=O)OC(C)(C)C)c4ccccc4)C[C@@](O)([C@@H](OC(=O)c4ccccc4)[C@H]21)C3(C)C [docetaxel, (2R,3S)—N-carboxy-3-phenylisoserine,N-tert-butyl ester, 13-ester with 5β-20-epoxy-1,2α,4,7β,10β,13α-hexahydroxytax-11-en-9-one 4-acetate 2-benzoate, trihydrate]
tumor growth (CUHN015 tumors): no effect on tumor growth
